# Experimental data from patent US12194081B2, “ARGINASE1 polypeptides” (IO BIOTECH APS, priority 2018, dated 2025).
# Tests used:
# [1] = tested on: PBMCs from healthy donors and cancer patients; assay: ex vivo IFNγ ELISPOT of PBMCs without prior peptide stimulation; type: cell-based, human; details: 4 healthy donors and 2 cancer patients; FIG. 4A
# Protocol: For in vitro ELISPOT, PBMCs from cancer patients and healthy donors were pulsed with 20 μM of Arginase 1-derived peptides and 120 U/ml IL-2 in 24-well plates for 7 days before being used in an ELISPOT assay. The cells were placed in 96-well nitrocellulose ELISPOT plates (MultiScreen MAIP N45; Millipore) pre-coated with IFNγ capture antibody (Mabtech). Arginase peptides added to a final concentration of 5 μM and plates incubated at 37° C. for 14-16 hours. After the incubation the cells were washed off and secondary biotinylated Ab (Mabtech, cat. 3420-6-1000) was added for 2 hours at room temperature. Unbound secondary antibody was washed off and streptavidin conjugated alkaline phosphatase (AP) (Mabtech, cat. 3310-10) was added for 1 hour at room temperature. Unbound conjugated enzyme was washed off and the assay was developed by adding BCIP/NBT substrate (Mabtech, cat. 3650-10). Developed ELISPOT plates were analyzed on CTL ImmunoSpot S6 Ultimate-V analyzer using Immunospot software v5.1. Responses were reported as the difference between average numbers of spots in wells stimulated with Arginase 1 and wells without added peptide.
# PBMCs from 4 healthy donors and 2 cancer patients (1 breast cancer and 1 malignant melanoma) that had shown strong responses in in vitro ELISPOT were directly tested for responses to ArgLong2 peptide in ex vivo IFNγ ELISPOT.
# [2] = tested on: PBMCs from cancer patients and healthy donors; assay: in vitro IFNγ ELISPOT of PBMCs after 7 days with peptide and IL-2; type: cell-based, human
# Protocol: PBMCs from healthy donors were isolated using density gradient separation over LymphoprepTM (STEMCELL Technologies) and cryopreserved at -150° C. in FBS supplemented with 10% DMSO. PBMCs from cancer patients were isolated from blood sample a minimum of four weeks after the termination of any anti-cancer therapy. The protocol was approved by the Scientific Ethics Committee for The Capital Region of Denmark and conducted in accordance with the provisions of the Declaration of Helsinki. Written informed consent from the patients was obtained before study entry. […] The sequences of the peptides used in these experiments are shown in full below in alignment with each other, and are also set out in the section entitled “Sequences”). Peptides are described by SEQ ID NO, by name, or by reference to the start and end positions of each peptide sequence within the full length sequence of Arginase 1. Each may be used interchangeably. For example, the peptide of SEQ ID NO: 1 may alternatively be referred to by the name ArgLong2, or may alternatively be referred to as […]-206 (given a start position of 169 and end position of 206). The intended reference in each case will be clear from the context. For in vitro ELISPOT, PBMCs from cancer patients and healthy donors were pulsed with 20 μM of Arginase 1-derived peptides and 120 U/ml IL-2 in 24-well plates for 7 days before being used in an ELISPOT assay. The cells were placed in 96-well nitrocellulose ELISPOT plates (MultiScreen MAIP […]; Millipore) pre-coated with IFNγ capture antibody (Mabtech). Arginase peptides added to a final concentration of 5 μM and plates incubated at 37° C. for 14-16 hours. After the incubation the cells were washed off and secondary biotinylated Ab (Mabtech, cat. 3420-6-1000) was added for 2 hours at room temperature. Unbound secondary antibody was washed off and streptavidin conjugated alkaline phosphatase (AP) (Mabtech, cat. 3310-10) was added for 1 hour at room temperature. Unbound conjugated enzyme was washed off and the assay was developed by adding BCIP/NBT substrate (Mabtech, cat. 3650-10). Developed ELISPOT plates were analyzed on CTL ImmunoSpot S6 Ultimate-V analyzer using Immunospot software v5.1. Responses were reported as the difference between average numbers of spots in wells stimulated with Arginase 1 and wells without added peptide.
# [3] = tested on: C57BL/6 mice; assay: Peptide vaccination of C57BL/6 mice, IFNγ ELISPOT of spleen and draining lymph node cells; type: in vivo, mouse; details: 100 μg peptide s.c. with Montanide ISA 51 VG; one vaccination; day 7; spleen and dLNs; FIG. 6
# Protocol: Animals were vaccinated subcutaneously with 100 μg peptide in DMSO/H2O in a 1:1 emulsion with incomplete Montanide ISA 51 VG. Montanide ISA 51 VG+DMSO/H2O served as a control vaccine. For subsequent analysis of the immune response to the ArgLong2 peptide, mice were sacrificed on day 7 and spleen and draining lymph nodes (dLNs) were harvested for ELISPOT setup.
# Murine immune cells were subjected to ELISPOT analysis. Single cell suspension was prepared from spleen or dLNs by passage through a cell strainer. After lysis of red blood cells, 0.6-0.8×10^6 cells/well were seeded into ELISPOT plates coated with anti-IFNγ antibody. Peptide of interest was added to designated wells and cells were incubated overnight with peptide. The next day, cells were removed, plates washed and incubated with biotinylated detection antibody. Finally, after addition of Streptavidin-ALP and substrate visible spots appear. Each spot corresponds to an individual IFNγ producing cell. Plates were analysed in an Immunospot analyser and plotted.
# [4] = tested on: PBMCs stimulated with IL-4, IL-13 or IL-2; assay: IFNγ ELISPOT of PBMCs pre-stimulated with Th2 cytokine (IL-4/IL-13) or IL-2; type: cell-based, human
# Excerpt: To check for IL-4 induced Arg1 responses, PBMCs were stimulated with IL-4 (100 or 50 U/ml) and/or IL-2 (120 or 60 U/ml) for a week before being set up in the ELISPOT assay as described above.
# The PBMCs were thawed and stimulated with IL-4, (50 U/ml or 100 U/ml), IL-2 (120 U/ml) or a combination of IL-4 and IL-2 (50 U/ml and 60 U/ml respectively) for one week before being tested in IFNγ ELISPOT for responses against ArgLong2. Non-stimulated cells were used as control.
# Next, PBMCs from 2 cancer patients (BC30 (breast cancer), MM27 (malignant melanoma)) and 6 healthy donors that had previously shown strong spontaneous ex vivo responses against ArgLong2 were stimulated with either low dose IL-2 (120 U/ml) or IL-4 (100 U/ml) for 7 days. Non-stimulated cells were used as control. After 7 days in culture, PBMCs were tested for reactivity against ArgLong2 in IFNγ ELISPOT.
# In a separate experiment, PBMCs from a healthy donor (HD22, known to have a pre-existing ex vivo response against ArgLong2) were treated with IL-4 (100 U/ml) or IL-13 (20 U/ml) for 7 days in order to increase presentation of the Arginase 1-derived peptides in the PBMC culture and thus stimulate the intrinsic ArgLong2 specific T cells present in the PBMCs. After 7 days of stimulation with IL-4 or IL-13, the PBMCs were analysed in IFNγ ELISPOT assay to check the changes in the frequency of the ArgLong2-specific T cells.
sequence,measurement,setting,value
"ISAKDIVYIGLRDVDPGEHYILKTLGIKYFSMTEVDRL (Peptide fragment of human Arginase 1 (ArgLong2)) [38-mer, positions 169-206 of full length human Arginase 1]",spontaneous responses in ex vivo IFNγ ELISPOT,[1],significant spontaneous responses in all 6 donors
same,responses in IFNγ ELISPOT (in words),"[2]; PBMCs from 6 healthy donors, peptide and low dose IL-2 for 1 week, FIG. 1",superior at stimulating T cell responses
same,peptide specific spots in IFNγ ELISPOT where too numerous to count (TNTC),"[2]; TNTC in six healthy donors and 2 cancer patients, 2.2-5×10^5 PBMCs/well, FIG. 2",> 500 spots
same,donors with high responses in IFNγ ELISPOT,"[2]; out of 6 healthy donors, PBMCs stimulated with peptide and low dose IL-2 for 1 week, FIG. 1",4 donors
same,cancer patients showing responses in IFNγ ELISPOT,"[2]; out of 16 cancer patients (8 melanoma, 6 multiple myeloma, 1 breast cancer, 1 renal cell carcinoma), strong responses counted for ArgLong2, FIG. 2",8 cancer patients
same,healthy donors showing responses in IFNγ ELISPOT,"[2]; out of 19 healthy donors, strong responses counted for ArgLong2, FIG. 2",14 healthy donors
same,"immunogenicity in mice (vaccine-specific T cell responses, IFNγ ELISPOT)",[3],strongly immunogenic
same,ArgLong2 responses in IL-4 and IL-13 treated PBMC cultures,"[4]; healthy donor HD22, IL-4 100 U/ml or IL-13 20 U/ml for 7 days, vs untreated control, FIG. 10",Increased ArgLong2 responses
same,cultures with increased responses in IL-4 stimulated cultures,"[4]; out of 8 cultures (2 cancer patients, 6 healthy donors), IL-4 100 U/ml for 7 days vs unstimulated and IL-2 stimulated controls, FIG. 5B",6 cultures
same,responses against ArgLong2 after IL-4 stimulation of PBMCs,"[4]; single melanoma patient, IL-4 50 or 100 U/ml, IL-2 120 U/ml or IL-4+IL-2 for one week, compared with no stimulation or IL-2 alone, FIG. 5A",Strong significant responses were seen in all IL-4 stimulated groups
